≈ marks a conversion by molar mass, not a printed value. Where two headings read alike, the source gives them in different places.
Key:
[1] = system: Streptococcus faecalis CN-478; test: MIC by standard agar plate dilution method; type: cell-based; conditions: Enterococcus faecalis
Text: The cephalosporin compound (I) of the present invention and pharmaceutically acceptable salts thereof show potent antimicrobial activity against a wide variety of microorganisms including those belonging to the genera Streptococcus (e.g., St. faecalis, St. pneumoniae), Staphylococcus (e.g., S. aureus, S. epidermidis) and Pseudomonas (e.g., Ps. aeruginosa, Ps. putida, Ps. stutzeri), and are particularly characterized by their potent antimicrobial activity against both gram-positive and gram-negative bacteria. […] The antimicrobial activity of 7β{(Z)-2-(2-aminothiazol-4-yl)-2-[(2-pyrrolidon-3-yl)oxyimino]-acetamido}-3-[(1-methyl-1H-tetrazol-5-yl)thio-methyl]-3-cephem-4-carboxylic acid against Staphylococcus aureus 252R is also more than 16 times stronger than those of Cefmenoxime and Ceftazidime. Moreover, the compound (I) and a salt thereof show potent antimicrobial activity against bacteria belonging to the genera Bacillus (e.g., B. subtilis), Escherichia (e.g., E. coli), Klebsiella (e.g., K. pneumoniae), Enterobacter (e.g., E. aerogenes, E. cloacae) and Serratia (e.g., S. marcescens).
(§1) The minimum inhibitory concentration (MIC, μg/ml) of a test compound was determined by means of a standard agar plate dilution method (based on the standard method of Japan Society of Chemotherapy). Media used in these experiments were Mueller-Hinton agar (MHA; Nissui).

[2] = system: Staphylococcus aureus 252R; test: MIC by standard agar plate dilution method; type: cell-based
Experimental: as §1

[3] = system: Bacillus subtilis ATCC 6633; test: MIC by standard agar plate dilution method; type: cell-based; conditions: ATCC6633, Table 1, Mueller-Hinton agar
Experimental: as §1

[4] = system: Enterobacter cloacae TU-680; test: MIC by standard agar plate dilution method; type: cell-based; conditions: TU680, Table 1, Mueller-Hinton agar
Experimental: as §1

[5] = system: Klebsiella pneumoniae 5038; test: MIC by standard agar plate dilution method; type: cell-based; conditions: Table 1, Mueller-Hinton agar
Experimental: as §1

[6] = system: Pseudomonas aeruginosa 4096; test: MIC by standard agar plate dilution method; type: cell-based; conditions: Table 1, Mueller-Hinton agar
Experimental: as §1

[7] = system: Pseudomonas putida ATCC 12633; test: MIC by standard agar plate dilution method; type: cell-based; conditions: ATCC12633, Table 1, Mueller-Hinton agar
Experimental: as §1

[8] = system: Staphylococcus aureus Terajima; test: MIC by standard agar plate dilution method; type: cell-based; conditions: Table 1, Mueller-Hinton agar
Experimental: as §1

Citrobacter freundii 916 [9] = test: MIC by standard agar plate dilution method; type: cell-based
Experimental: as §1
(§2) The results are shown in the following Table 2 together with the M. I. C. (μg/ml) of the test compound which was estimated in the same manner as described in Experiment I.

[10] = system: Enterobacter aerogenes 816; test: MIC by standard agar plate dilution method; type: cell-based
Experimental: as §1, §2

Escherichia coli KC-14 [11] = test: MIC by standard agar plate dilution method; type: cell-based; conditions: KC14, Table 2, read-out: M.I.C. (in parentheses)
Experimental: as §1, §2

Serratia marcescens 7006 [12] = test: MIC by standard agar plate dilution method; type: cell-based
Experimental: as §1, §2

[13] = system: Staphylococcus aureus Smith; test: MIC by standard agar plate dilution method; type: cell-based; conditions: read-out: M.I.C. (in parentheses)
Experimental: as §1, §2

Citrobacter freundii 916 [14] = test: Protective effects on bacterial infections in mice; type: in vivo; conditions: 168 h
Experimental: (§3) Ten male mice weighing 20±1 g were used for each dose level. Mice were challenged via the intraperitoneal route with sufficient bacteria to kill all non-treated mice within 24 hours. All bacteria were suspended in 6 % mucin. A test compound were administered intramuscularly one hour after the infection. Survival ratios were determined 7 days after the infection. The median effective doses (ED50, mg/kg) of the test compound were estimated by the probito analysis.

[15] = system: Enterobacter aerogenes 816; test: Protective effects on bacterial infections in mice; type: in vivo; conditions: 168 h
Experimental: as §3

Escherichia coli KC-14 [16] = test: Protective effects on bacterial infections in mice; type: in vivo; conditions: KC14, im, 168 h, intramuscular one hour after intraperitoneal infection, survival at 7 days
Experimental: as §3

Serratia marcescens 7006 [17] = test: Protective effects on bacterial infections in mice; type: in vivo; conditions: 168 h
Experimental: as §3

[18] = system: Staphylococcus aureus Smith; test: Protective effects on bacterial infections in mice; type: in vivo; conditions: im, 168 h
Experimental: as §3

[19] = Subcutaneous administration to SD-male rats for 14 consecutive days; type: in vivo; conditions: dose of 1000 mg for 14 consecutive days
Experimental: For example, no rats die even after 7β-{(Z)-2-(2-aminothiazol-4-yl)-2-[(2-pyrrolidon-3-yl)oxyimino]acetamido}-3-(1-pyridiniomethyl)-3-cephem-4-carboxylate (l-isomer) is administered subcutaneously to SD-male rats at a dose of 1000 mg for 14 consecutive days.

[20] = CN478, agar dilution method, cultured for 20 hours at 37° C., Streptococcus faecalis CN 478, read-out: minimum inhibitory concentration (M.I.C.)
[21] = Table 1, Mueller-Hinton agar, Staphylococcus aureus 252R, read-out: M.I.C.
[22] = CN478, Table 1, Mueller-Hinton agar, Streptococcus faecalis CN-478, read-out: M.I.C.
[23] = Table 2, Citrobacter freundii 916, read-out: M.I.C. (in parentheses)
[24] = Klebsiella aerogenes, Table 2, Enterobacter aerogenes 816, read-out: M.I.C. (in parentheses)
[25] = Table 1, Mueller-Hinton agar, Serratia marcescens 7006, read-out: M.I.C.
[26] = Table 2, Serratia marcescens 7006, read-out: M.I.C. (in parentheses)
[27] = Table 2, Staphylococcus aureus Smith
[28] = im, Citrobacter freundii 916, intramuscular one hour after intraperitoneal infection, survival at 7 days, read-out: ED50
[29] = Klebsiella aerogenes, im, Enterobacter aerogenes 816, intramuscular one hour after intraperitoneal infection, survival at 7 days, read-out: ED50
[30] = im, Serratia marcescens 7006, intramuscular one hour after intraperitoneal infection, survival at 7 days, read-out: ED50
[31] = Staphylococcus aureus Smith, intramuscular one hour after intraperitoneal infection, survival at 7 days, read-out: ED50

Structure (SMILES) | MIC [1, 20] | MIC [3] | MIC [4] | MIC [5] | MIC [6] | MIC [7] | MIC [2, 21] | MIC [8] | MIC [1, 22] | MIC (Citrobacter freundii 916 [9]; [23]) | MIC [10, 24] | MIC (Escherichia coli KC-14 [11]) | MIC (Serratia marcescens 7006 [12]; [25]) | MIC (Serratia marcescens 7006 [12]; [26]) | MIC [13, 27] | ED50 (Citrobacter freundii 916 [14]; [28]) | ED50 [15, 29] | ED50 (Escherichia coli KC-14 [16]) | ED50 (Serratia marcescens 7006 [17]; [30]) | ED50 [18, 31] | also measured
CN1CCC(O/N=C(\C(=O)N[C@@H]2C(=O)N3C(C(=O)O)=C(CSc4nnnn4C)CS[C@H]23)c2csc(N)n2)C1=O (stereo partly drawn) [7β-{(Z)-2-(2-aminothiazol-4-yl)-2-[(1-methyl-2-pyrrolidon-3-yl)oxyiminoacetamido}-3-[(1-methyl-1H-tetrazol-5-yl)thiomethyl]-3-cephem-4-carboxylic acid] | 25 µg/mL (≈ 42 µM) | – | – | – | – | – | – | – | – | – | – | – | – | – | – | – | – | – | – | – | –
Cn1nnnc1SCC1=C(C(=O)O)N2C(=O)[C@@H](NC(=O)/C(=N\OC3CCNC3=O)c3csc(N)n3)[C@H]2SC1 (stereo partly drawn) [7β{(Z)-2-(2-aminothiazol-4-yl)-2-[(2-pyrrolidon-3-yl)oxyimino]-acetamido}-3-[(1-methyl-1H-tetrazol-5-yl)thio-methyl]-3-cephem-4-carboxylic acid] | – | – | – | – | – | – | – | – | – | – | – | – | – | – | – | – | – | – | – | – | antimicrobial activity stronger than those of Cefmenoxime and Ceftazidime ([2]; Staphylococcus aureus 252R, relative to Cefmenoxime and Ceftazidime): more than 16 times
CO/N=C(\C(=O)N[C@@H]1C(=O)N2C(C(=O)O)=C(CSc3nnnn3C)CS[C@H]12)c1csc(N)n1 [Cefmenoxime, 7β-[(Z)-2-(2-aminothiazol-4-yl)-2-(methoxyimino)acetamido]-3-[(1-methyl-1H-tetrazol-5-yl)thiomethyl]-3-cephem-4-carboxylic acid] | > 100 µg/mL | 1.56 µg/mL (≈ 3.05 µM) | 0.1 µg/mL (≈ 0.195 µM) | 0.1 µg/mL (≈ 0.195 µM) | 6.25 µg/mL (≈ 12.2 µM) | 100 µg/mL (≈ 195 µM) | > 100 µg/mL | 1.56 µg/mL (≈ 3.05 µM) | > 100 µg/mL | 0.05 µg/mL (≈ 0.0977 µM) | 1.56 µg/mL (≈ 3.05 µM) | 0.025 µg/mL (≈ 0.0489 µM) | 0.2 µg/mL (≈ 0.391 µM) | 0.2 µg/mL (≈ 0.391 µM) | 1.56 µg/mL (≈ 3.05 µM) | 0.19 mg/kg | 23.9 mg/kg | 0.16 mg/kg | 0.88 mg/kg | 5.32 mg/kg | –
CC(C)(O/N=C(\C(=O)N[C@@H]1C(=O)N2C(C(=O)[O-])=C(C[n+]3ccccc3)CS[C@H]12)c1csc(N)n1)C(=O)O [Ceftazidime, 7β-[(Z)-2-(2-aminothiazol-4-yl)-2-(2-carboxyprop-2-yloxyimino)acetamido]-3-(1-pyridiniomethyl)-3-cephem-4-carboxylate] | – | 3.13 µg/mL (≈ 5.73 µM) | 0.2 µg/mL (≈ 0.366 µM) | 0.1 µg/mL (≈ 0.183 µM) | 0.78 µg/mL (≈ 1.43 µM) | 12.5 µg/mL (≈ 22.9 µM) | – | 12.5 µg/mL (≈ 22.9 µM) | – | – | – | 0.05 µg/mL (≈ 0.0915 µM) | – | – | – | – | – | 0.08 mg/kg | – | – | MIC ([2]; Staphylococcus aureus, 252R): > 100 µg/mL; MIC ([1]; CN478): > 100 µg/mL; MIC ([1]; CN478, 20 h, read-out: minimum inhibitory concentration (M.I.C.)): > 100 µg/mL; MIC (Citrobacter freundii 916 [9]; Citrobacter freundii, 916, read-out: M.I.C. (in parentheses)): 0.39 µg/mL (≈ 0.714 µM); MIC ([10]; Klebsiella aerogenes, 816, read-out: M.I.C. (in parentheses)): 6.25 µg/mL (≈ 11.4 µM); MIC (Serratia marcescens 7006 [12]; Serratia marcescens, 7006): 0.2 µg/mL (≈ 0.366 µM); MIC (Serratia marcescens 7006 [12]; Serratia marcescens, 7006, read-out: M.I.C. (in parentheses)): 0.2 µg/mL (≈ 0.366 µM); MIC ([13]; Staphylococcus aureus): 12.5 µg/mL (≈ 22.9 µM); ED50 (Citrobacter freundii 916 [14]; Citrobacter freundii, 916, im): 0.15 mg/kg; ED50 ([15]; Klebsiella aerogenes, 816, im): 26.4 mg/kg; ED50 (Serratia marcescens 7006 [17]; Serratia marcescens, 7006, im): 0.54 mg/kg; ED50 ([18]; Staphylococcus aureus): 7.85 mg/kg
Nc1nc(/C(=N/O[C@H]2CCNC2=O)C(=O)N[C@@H]2C(=O)N3C(C(=O)[O-])=C(C[n+]4ccccc4)CS[C@H]23)cs1 [Example 6, 7β-{(Z)-2-(2-aminothiazol-4-yl)-2-[(2-pyrrolidon-3-yl)oxyimino]acetamido}-3-(1-pyridiniomethyl)-3-cephem-4-carboxylate (l-isomer)] | 12.5 µg/mL (≈ 23 µM) | 0.2 µg/mL (≈ 0.368 µM) | ≤ 0.05 µg/mL | 0.05 µg/mL (≈ 0.092 µM) | 0.39 µg/mL (≈ 0.717 µM) | 1.56 µg/mL (≈ 2.87 µM) | 25 µg/mL (≈ 46 µM) | 0.78 µg/mL (≈ 1.43 µM) | 12.5 µg/mL (≈ 23 µM) | 0.1 µg/mL (≈ 0.184 µM) | 0.39 µg/mL (≈ 0.717 µM) | 0.05 µg/mL (≈ 0.092 µM) | ≤ 0.05 µg/mL | 0.05 µg/mL (≈ 0.092 µM) | 1.56 µg/mL (≈ 2.87 µM) | 0.06 mg/kg | 1.37 mg/kg | 0.05 mg/kg | 0.14 mg/kg | 1.71 mg/kg | deaths of rats [19]: no rats die
